Assay results taken from ChEMBL document CHEMBL3352037, “Antifungal terpenoids from Hyalis argentea var. latisquama” (2014).
Converted amounts (≈) assume the structure as drawn. The source made the active and inactive calls. The calls are words filed in the database; no cut-off is given here.

Columns and labels:
Candida albicans [1] = assay: Antifungal activity against Candida albicans ATCC 10231 assessed as microbial growth inhibition at 50 to 300 ug/mL after 48 hrs broth microdilution method; type: functional, organism-based
Cryptococcus neoformans [2] = assay: Antifungal activity against Cryptococcus neoformans ATCC 32264 assessed as microbial growth inhibition at 50 to 300 ug/mL after 48 hrs broth microdilution method; type: functional, organism-based
Candida albicans [3] = assay: Antifungal activity against Candida albicans ATCC 10231 by bioautography TLC plate assay based MTT method; type: functional, organism-based
Cryptococcus neoformans [4] = assay: Antifungal activity against Cryptococcus neoformans ATCC 32264 by bioautography TLC plate assay based MTT method; type: functional, organism-based
Candida albicans [5] = assay: Antifungal activity against Candida albicans ATCC 10231 assessed as microbial growth inhibition at 250 ug/mL after 48 hrs broth microdilution method; type: functional, organism-based
Cryptococcus neoformans [6] = assay: Antifungal activity against Cryptococcus neoformans ATCC 32264 assessed as microbial growth inhibition at 250 ug/mL after 48 hrs broth microdilution method; type: functional, organism-based
Candida albicans [7] = assay: Antifungal activity against Candida albicans ATCC 10231 assessed as microbial growth inhibition at 15.6 ug/mL after 48 hrs broth microdilution method; type: functional; conditions: ATCC 10231, 48 h, read-out: GI
Candida albicans [8] = assay: Antifungal activity against Candida albicans ATCC 10231 assessed as microbial growth inhibition at 62.5 ug/mL after 48 hrs broth microdilution method; type: functional; conditions: ATCC 10231, 48 h, read-out: GI
Candida albicans [9] = assay: Antifungal activity against Candida albicans ATCC 10231 assessed as microbial growth inhibition at 125 ug/mL after 48 hrs broth microdilution method; type: functional; conditions: ATCC 10231, 48 h, read-out: GI
Cryptococcus neoformans [10] = assay: Antifungal activity against Cryptococcus neoformans ATCC 32264 assessed as microbial growth inhibition at 15.6 ug/mL after 48 hrs broth microdilution method; type: functional; conditions: ATCC 32264, 48 h, read-out: GI
Cryptococcus neoformans [11] = assay: Antifungal activity against Cryptococcus neoformans ATCC 32264 assessed as microbial growth inhibition at 31.25 ug/mL after 48 hrs broth microdilution method; type: functional; conditions: ATCC 32264, 48 h, read-out: GI
Cryptococcus neoformans [12] = assay: Antifungal activity against Cryptococcus neoformans ATCC 32264 assessed as microbial growth inhibition at 62.5 ug/mL after 48 hrs broth microdilution method; type: functional; conditions: ATCC 32264, 48 h, read-out: GI
Cryptococcus neoformans [13] = assay: Antifungal activity against Cryptococcus neoformans ATCC 32264 assessed as microbial growth inhibition after 48 hrs broth microdilution method; type: functional
Candida albicans [14] = assay: Antifungal activity against Candida albicans ATCC 10231 assessed as microbial growth inhibition after 48 hrs broth microdilution method; type: functional, organism-based
Candida albicans [15] = assay: Antifungal activity against Candida albicans ATCC 10231 assessed as microbial growth inhibition at => 125 ug/mL after 48 hrs broth microdilution method; type: functional
Cryptococcus neoformans [16] = assay: Antifungal activity against Cryptococcus neoformans ATCC 32264 assessed as microbial growth inhibition at => 125 ug/mL after 48 hrs broth microdilution method; type: functional

Question: `C=C1[C@H]2C[C@H]2[C@]2(C)C[C@@H]3OC(=O)C(CO)=C3C[C@@H]12` was tested. Which “growth inhibition (GI)” value (Candida albicans [1]) did it give?
Answer: inactive

Question: And the “growth inhibition (GI)” value (Cryptococcus neoformans [2])?
Answer: inactive

Question: For `C=C1[C@H]2C[C@H]2[C@]2(C)[C@@H]3O[C@@]34OC(=O)C(COC(C)=O)=C4C[C@@H]12`, which “growth inhibition (GI)” value (Candida albicans [3]) is on record?
Answer: Active

Question: And the “growth inhibition (GI)” value (Cryptococcus neoformans [4])?
Answer: Active

Question: And the “growth inhibition (GI)” value (Candida albicans [5])?
Answer: inactive

Question: And the “growth inhibition (GI)” value (Cryptococcus neoformans [6])?
Answer: inactive

Question: What does the source list for `C=C1[C@H]2C[C@H]2[C@]2(C)C=C3OC(=O)C(COC(C)=O)=C3C[C@@H]12`?
Answer: growth inhibition (GI) (Candida albicans [3]): Active; growth inhibition (GI) (Cryptococcus neoformans [4]): Active; inhibition of growth at 15.6 µg/mL (Candida albicans [7]): 50%; inhibition of growth at 62.5 µg/mL (Candida albicans [8]): 80%; inhibition of growth at 125 µg/mL (Candida albicans [9]): 100%; inhibition of growth at 15.6 µg/mL (Cryptococcus neoformans [10]): 50%; inhibition of growth at 31.25 µg/mL (Cryptococcus neoformans [11]): 80%; inhibition of growth at 62.5 µg/mL (Cryptococcus neoformans [12]): 100%

Question: What does the source list for `C=C1[C@@H]2[C@H]3OC(=O)C(=C)[C@@H]3CCC(=C)[C@@H]2C[C@@H]1O` [ZALUZANIN C]?
Answer: growth inhibition (GI) (Candida albicans [3]): Active; MIC (Cryptococcus neoformans [13]; ATCC 32264, 48 h): 125 µg/mL (≈ 507 µM); growth inhibition (GI) (Candida albicans [14]): Active

Question: Which “growth inhibition (GI)” value (Candida albicans [3]) does the source give for `C=C1[C@@H]2[C@H]3OC(=O)[C@@H](C)[C@@H]3CCC(=C)[C@@H]2C[C@@H]1O` here?
Answer: Active

Question: What about the “growth inhibition (GI)” value (Cryptococcus neoformans [4]) of the same compound?
Answer: Active

Question: And the “growth inhibition (GI)” value (Cryptococcus neoformans [13])?
Answer: Active

Question: What about the “growth inhibition (GI)” value (Candida albicans [14]) of the same compound?
Answer: Active

Question: For `C=C1[C@H]2C[C@H]2[C@]2(C)C=C3OC(=O)C(CO)=C3C[C@@H]12`, which “growth inhibition (GI)” value (Candida albicans [3]) is on record?
Answer: Active

Question: And the “growth inhibition (GI)” value (Cryptococcus neoformans [4])?
Answer: Active

Question: What about the “growth inhibition (GI)” value (Candida albicans [15]) of the same compound?
Answer: 50%

Question: What about the “growth inhibition (GI)” value (Cryptococcus neoformans [16]) of the same compound?
Answer: 50%
